Key:
[1] = molecular target: T1, Alpha-2A adrenergic receptor (Homo sapiens, UniProt P08913); format: functional, cell-based
T1 sequence (P08913 whole entry): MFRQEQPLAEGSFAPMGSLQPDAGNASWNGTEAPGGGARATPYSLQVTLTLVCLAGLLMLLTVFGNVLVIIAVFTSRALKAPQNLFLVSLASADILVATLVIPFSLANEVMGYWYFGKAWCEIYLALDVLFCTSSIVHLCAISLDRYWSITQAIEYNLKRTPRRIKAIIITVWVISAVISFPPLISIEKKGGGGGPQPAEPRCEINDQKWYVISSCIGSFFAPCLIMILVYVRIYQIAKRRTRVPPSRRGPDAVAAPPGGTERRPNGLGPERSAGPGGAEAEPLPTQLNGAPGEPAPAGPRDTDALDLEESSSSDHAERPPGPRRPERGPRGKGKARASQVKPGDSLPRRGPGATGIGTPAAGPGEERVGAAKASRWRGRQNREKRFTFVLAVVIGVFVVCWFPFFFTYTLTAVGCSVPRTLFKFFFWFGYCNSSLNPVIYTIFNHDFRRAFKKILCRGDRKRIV

[2] = molecular target: Beta-2 adrenergic receptor (Homo sapiens, UniProt P07550)
Chain of Beta-2 adrenergic receptor (P07550 whole entry): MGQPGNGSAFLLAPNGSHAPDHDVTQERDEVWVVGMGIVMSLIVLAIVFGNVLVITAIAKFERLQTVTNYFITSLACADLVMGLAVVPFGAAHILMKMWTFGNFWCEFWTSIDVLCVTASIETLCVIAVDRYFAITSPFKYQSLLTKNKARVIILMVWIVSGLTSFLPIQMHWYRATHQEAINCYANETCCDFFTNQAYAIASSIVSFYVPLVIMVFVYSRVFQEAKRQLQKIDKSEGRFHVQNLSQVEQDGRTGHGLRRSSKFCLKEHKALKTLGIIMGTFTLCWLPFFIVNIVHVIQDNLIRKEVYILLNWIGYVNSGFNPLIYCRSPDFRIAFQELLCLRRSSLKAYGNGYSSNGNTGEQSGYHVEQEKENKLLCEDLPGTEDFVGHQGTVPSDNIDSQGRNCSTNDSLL

[3] = molecular target: T2, Type-1 angiotensin II receptor (Homo sapiens, UniProt P30556)
T2 sequence (P30556 whole entry): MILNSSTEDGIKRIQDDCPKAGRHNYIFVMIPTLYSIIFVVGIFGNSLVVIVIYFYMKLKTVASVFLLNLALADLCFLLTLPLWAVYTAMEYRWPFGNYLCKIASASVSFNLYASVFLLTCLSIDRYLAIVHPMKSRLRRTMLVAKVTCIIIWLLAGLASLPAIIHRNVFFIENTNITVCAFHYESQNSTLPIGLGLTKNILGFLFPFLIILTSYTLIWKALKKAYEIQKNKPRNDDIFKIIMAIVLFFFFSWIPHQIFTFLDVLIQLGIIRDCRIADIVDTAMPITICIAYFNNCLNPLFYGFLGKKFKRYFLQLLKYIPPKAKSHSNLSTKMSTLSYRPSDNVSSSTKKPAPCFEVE

[4] = molecular target: Voltage-dependent L-type calcium channel subunit alpha-1C (Rattus norvegicus, UniProt P22002); format: functional
Chain of Voltage-dependent L-type calcium channel subunit alpha-1C (P22002 whole entry): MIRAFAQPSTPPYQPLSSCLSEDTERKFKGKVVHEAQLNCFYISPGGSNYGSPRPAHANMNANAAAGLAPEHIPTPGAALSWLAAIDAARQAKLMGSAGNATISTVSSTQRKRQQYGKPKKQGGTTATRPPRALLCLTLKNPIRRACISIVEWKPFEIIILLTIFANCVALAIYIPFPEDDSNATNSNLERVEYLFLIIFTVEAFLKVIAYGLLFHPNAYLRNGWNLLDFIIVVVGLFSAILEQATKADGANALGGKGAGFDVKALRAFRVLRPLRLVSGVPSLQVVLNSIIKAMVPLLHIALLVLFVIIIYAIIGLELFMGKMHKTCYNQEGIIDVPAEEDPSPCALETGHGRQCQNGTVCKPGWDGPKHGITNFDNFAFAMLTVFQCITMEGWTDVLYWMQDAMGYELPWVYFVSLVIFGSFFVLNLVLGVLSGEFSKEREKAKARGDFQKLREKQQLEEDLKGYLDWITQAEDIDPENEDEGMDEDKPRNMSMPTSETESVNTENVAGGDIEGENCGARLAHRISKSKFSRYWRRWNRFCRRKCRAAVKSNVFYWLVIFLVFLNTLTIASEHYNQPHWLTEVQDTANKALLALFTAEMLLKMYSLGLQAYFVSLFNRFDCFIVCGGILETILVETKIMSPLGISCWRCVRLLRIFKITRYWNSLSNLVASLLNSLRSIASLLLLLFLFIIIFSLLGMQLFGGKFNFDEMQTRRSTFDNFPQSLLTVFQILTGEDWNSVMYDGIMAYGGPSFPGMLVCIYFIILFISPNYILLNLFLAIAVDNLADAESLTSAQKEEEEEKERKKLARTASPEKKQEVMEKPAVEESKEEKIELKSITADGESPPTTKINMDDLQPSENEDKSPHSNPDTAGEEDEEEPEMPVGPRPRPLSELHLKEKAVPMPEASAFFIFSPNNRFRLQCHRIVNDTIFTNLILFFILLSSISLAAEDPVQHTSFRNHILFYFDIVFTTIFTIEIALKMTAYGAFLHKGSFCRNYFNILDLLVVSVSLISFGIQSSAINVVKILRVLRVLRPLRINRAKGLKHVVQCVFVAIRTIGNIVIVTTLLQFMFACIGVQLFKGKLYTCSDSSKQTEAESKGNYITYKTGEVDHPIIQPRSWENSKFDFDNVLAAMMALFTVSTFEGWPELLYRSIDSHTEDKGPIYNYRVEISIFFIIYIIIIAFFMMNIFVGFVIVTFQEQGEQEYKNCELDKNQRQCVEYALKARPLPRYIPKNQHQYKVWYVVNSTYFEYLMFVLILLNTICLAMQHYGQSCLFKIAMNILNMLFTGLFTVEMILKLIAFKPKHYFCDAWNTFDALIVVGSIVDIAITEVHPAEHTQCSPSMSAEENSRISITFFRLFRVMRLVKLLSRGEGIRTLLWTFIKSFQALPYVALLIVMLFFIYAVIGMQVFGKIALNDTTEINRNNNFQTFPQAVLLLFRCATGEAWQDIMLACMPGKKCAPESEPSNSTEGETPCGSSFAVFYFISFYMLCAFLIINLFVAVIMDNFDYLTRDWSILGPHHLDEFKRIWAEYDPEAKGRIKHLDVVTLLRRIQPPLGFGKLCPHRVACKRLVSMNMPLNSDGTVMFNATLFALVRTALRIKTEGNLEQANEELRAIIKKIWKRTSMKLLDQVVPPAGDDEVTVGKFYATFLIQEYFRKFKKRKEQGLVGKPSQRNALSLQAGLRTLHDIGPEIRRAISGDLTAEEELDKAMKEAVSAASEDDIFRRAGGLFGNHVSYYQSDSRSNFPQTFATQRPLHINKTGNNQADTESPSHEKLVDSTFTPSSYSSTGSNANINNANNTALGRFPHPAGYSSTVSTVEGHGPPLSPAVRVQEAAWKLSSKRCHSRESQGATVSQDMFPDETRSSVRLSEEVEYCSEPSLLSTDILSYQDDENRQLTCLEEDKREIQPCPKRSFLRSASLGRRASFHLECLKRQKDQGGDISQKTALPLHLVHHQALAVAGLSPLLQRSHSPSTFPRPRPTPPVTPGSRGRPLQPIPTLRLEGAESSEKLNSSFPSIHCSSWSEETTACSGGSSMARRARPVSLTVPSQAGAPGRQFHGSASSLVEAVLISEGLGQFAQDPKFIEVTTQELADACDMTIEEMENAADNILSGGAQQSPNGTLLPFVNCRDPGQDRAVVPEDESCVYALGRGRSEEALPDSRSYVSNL

[5] = molecular target: Neuronal acetylcholine receptor subunit alpha-4 (Homo sapiens, UniProt P43681)
Chain of Neuronal acetylcholine receptor subunit alpha-4 (P43681 whole entry): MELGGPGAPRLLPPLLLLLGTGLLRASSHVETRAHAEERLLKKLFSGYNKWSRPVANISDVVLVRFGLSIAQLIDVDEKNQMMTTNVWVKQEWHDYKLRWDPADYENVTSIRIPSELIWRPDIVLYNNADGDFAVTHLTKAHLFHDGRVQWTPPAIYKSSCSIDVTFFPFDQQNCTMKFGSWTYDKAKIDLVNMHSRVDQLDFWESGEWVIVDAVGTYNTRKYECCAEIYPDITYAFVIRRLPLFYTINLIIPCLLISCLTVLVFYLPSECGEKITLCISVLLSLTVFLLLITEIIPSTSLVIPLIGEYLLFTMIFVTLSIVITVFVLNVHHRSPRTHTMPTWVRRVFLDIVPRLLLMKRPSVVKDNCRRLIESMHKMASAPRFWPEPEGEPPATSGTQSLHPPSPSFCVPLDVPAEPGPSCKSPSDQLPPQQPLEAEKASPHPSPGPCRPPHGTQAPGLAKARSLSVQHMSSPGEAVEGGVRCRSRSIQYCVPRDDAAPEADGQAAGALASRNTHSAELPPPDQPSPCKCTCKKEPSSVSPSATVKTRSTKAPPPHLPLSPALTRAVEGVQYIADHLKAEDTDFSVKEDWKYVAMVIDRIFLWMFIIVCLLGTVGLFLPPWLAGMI

Melanocortin receptor 3 = Melanocortin receptor 3 (Homo sapiens, UniProt P41968)
Chain of Melanocortin receptor 3 (P41968 whole entry): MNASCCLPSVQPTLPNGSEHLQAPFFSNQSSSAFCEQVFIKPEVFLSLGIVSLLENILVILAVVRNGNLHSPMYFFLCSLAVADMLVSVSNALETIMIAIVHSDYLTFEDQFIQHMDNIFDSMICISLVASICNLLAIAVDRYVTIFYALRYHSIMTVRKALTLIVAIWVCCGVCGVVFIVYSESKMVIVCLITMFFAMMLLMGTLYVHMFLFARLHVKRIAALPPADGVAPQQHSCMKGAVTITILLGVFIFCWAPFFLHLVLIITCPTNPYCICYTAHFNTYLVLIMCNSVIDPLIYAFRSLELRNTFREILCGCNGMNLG

Glucocorticoid receptor = molecular target: T3, Glucocorticoid receptor (Homo sapiens, UniProt P04150)
T3 sequence (P04150 whole entry): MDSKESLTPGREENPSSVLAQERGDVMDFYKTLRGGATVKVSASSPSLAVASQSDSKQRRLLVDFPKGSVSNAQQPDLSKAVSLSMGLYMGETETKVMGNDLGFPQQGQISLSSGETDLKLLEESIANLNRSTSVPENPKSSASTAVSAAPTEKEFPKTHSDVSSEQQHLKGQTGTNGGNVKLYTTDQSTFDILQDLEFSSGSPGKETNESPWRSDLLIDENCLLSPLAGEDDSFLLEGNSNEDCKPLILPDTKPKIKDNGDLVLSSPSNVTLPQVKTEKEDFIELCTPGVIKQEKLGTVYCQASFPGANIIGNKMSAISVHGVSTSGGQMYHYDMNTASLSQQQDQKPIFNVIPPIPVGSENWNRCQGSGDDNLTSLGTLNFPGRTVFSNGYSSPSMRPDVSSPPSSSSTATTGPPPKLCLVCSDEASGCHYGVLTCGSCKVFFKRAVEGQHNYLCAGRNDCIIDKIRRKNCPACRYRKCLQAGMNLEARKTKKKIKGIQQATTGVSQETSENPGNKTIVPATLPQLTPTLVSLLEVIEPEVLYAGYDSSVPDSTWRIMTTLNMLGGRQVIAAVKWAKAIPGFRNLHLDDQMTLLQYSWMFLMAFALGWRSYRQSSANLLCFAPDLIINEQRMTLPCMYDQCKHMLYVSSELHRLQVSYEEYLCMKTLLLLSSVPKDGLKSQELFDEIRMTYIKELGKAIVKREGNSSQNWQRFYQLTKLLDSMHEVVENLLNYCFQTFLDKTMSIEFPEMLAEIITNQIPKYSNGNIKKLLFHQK

[6] = molecular target: Kappa-type opioid receptor (Homo sapiens, UniProt P41145)
Chain of Kappa-type opioid receptor (P41145 whole entry): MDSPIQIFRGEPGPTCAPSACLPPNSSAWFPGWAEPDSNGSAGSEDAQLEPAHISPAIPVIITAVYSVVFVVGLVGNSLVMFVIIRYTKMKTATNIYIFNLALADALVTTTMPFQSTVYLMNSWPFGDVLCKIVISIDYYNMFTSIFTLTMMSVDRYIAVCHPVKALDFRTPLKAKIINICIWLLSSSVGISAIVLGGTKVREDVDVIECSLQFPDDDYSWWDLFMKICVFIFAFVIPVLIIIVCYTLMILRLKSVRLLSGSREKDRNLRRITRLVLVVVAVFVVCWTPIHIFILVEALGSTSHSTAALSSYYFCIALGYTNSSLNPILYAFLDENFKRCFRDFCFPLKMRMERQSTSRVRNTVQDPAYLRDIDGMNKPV

[7] = molecular target: cGMP-inhibited 3',5'-cyclic phosphodiesterase 3A (Homo sapiens, UniProt Q14432); format: functional
[8] = molecular target: T4, Alpha-2B adrenergic receptor (Homo sapiens, UniProt P18089)
T4 sequence (P18089 whole entry): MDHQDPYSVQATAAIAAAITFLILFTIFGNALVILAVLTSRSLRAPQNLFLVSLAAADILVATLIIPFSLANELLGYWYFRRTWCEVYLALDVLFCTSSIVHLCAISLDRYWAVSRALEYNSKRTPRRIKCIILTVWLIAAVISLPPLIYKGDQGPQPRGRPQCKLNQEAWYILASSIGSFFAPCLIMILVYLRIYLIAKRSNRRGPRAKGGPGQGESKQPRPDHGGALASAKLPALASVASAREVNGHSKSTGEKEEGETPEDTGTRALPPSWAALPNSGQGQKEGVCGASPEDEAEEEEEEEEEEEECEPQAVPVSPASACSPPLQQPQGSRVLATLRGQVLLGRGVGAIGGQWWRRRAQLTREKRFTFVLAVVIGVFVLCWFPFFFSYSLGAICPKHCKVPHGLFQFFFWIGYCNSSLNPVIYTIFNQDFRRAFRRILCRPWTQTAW

[9] = molecular target: Muscarinic acetylcholine receptor M3 (Homo sapiens, UniProt P20309)
Chain of Muscarinic acetylcholine receptor M3 (P20309 whole entry): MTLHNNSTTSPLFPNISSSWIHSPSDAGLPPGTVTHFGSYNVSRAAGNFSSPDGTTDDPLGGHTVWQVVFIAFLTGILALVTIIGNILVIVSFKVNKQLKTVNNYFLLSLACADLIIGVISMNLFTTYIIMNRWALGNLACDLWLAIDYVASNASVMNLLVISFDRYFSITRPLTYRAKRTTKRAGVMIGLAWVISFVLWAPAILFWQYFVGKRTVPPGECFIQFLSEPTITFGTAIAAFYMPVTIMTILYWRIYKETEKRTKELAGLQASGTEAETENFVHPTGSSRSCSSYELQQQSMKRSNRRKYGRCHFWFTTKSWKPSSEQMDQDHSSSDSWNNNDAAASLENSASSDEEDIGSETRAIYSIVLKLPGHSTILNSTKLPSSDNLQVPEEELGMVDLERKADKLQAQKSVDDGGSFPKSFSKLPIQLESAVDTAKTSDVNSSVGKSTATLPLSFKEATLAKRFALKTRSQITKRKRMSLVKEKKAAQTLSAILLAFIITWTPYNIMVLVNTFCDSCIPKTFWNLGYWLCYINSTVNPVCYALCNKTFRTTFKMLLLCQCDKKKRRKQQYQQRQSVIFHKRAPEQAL

Endothelin-1 receptor = molecular target: T5, Endothelin-1 receptor (Homo sapiens, UniProt P25101)
T5 sequence (P25101 whole entry): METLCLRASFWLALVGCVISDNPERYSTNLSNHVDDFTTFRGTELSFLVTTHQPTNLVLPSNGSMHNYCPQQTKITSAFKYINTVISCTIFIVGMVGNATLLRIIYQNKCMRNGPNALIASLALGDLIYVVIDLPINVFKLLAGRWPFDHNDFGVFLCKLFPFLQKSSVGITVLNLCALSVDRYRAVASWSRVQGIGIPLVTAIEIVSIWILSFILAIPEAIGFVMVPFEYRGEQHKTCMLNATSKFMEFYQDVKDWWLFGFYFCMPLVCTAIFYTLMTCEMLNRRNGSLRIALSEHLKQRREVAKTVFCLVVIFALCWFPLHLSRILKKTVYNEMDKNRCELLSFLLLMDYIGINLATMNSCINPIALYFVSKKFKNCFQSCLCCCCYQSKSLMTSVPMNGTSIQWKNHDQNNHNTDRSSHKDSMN
Also: assay procedure not described here.

Row | Structure (SMILES) | AC50 [1] | AC50 [2] | AC50 [3] | AC50 [4] | AC50 [5] | AC50 (Melanocortin receptor 3) | AC50 (Glucocorticoid receptor) | AC50 [6] | AC50 [7] | AC50 [8] | AC50 [9] | AC50 (Endothelin-1 receptor)
1 | CC=CC(=O)N(CC)c1ccccc1C | > 10 µM | > 10 µM | > 10 µM | > 10 µM | > 10 µM | > 10 µM | > 10 µM | > 10 µM | > 30 µM |  |  | 
2 | NCC[C@H](O)C(=O)N[C@@H]1C[C@H](N)[C@@H](O[C@H]2O[C@H](CN)[C@@H](O)[C@H](O)[C@H]2O)[C@H](O)[C@H]1O[C@H]1O[C@H](CO)[C@@H](O)[C@H](N)[C@H]1O [AMIKACIN] | > 10 µM | > 10 µM | > 10 µM | > 10 µM | > 10 µM | > 10 µM | > 10 µM | > 10 µM | > 30 µM |  |  | 
3 | COc1ccc2c3c1O[C@H]1[C@@H](O)C=C[C@H]4[C@@H](C2)N(C)CC[C@@]341 [CODEINE] | > 10 µM | > 10 µM | > 30 µM | > 10 µM | > 10 µM | > 30 µM |  |  | 3 µM | > 10 µM | > 30 µM | > 30 µM
4 | C#C[C@]1(O)CC[C@H]2[C@@H]3CCC4=Cc5oncc5C[C@]4(C)[C@H]3CC[C@@]21C [DANAZOL] | > 10 µM | > 10 µM | > 10 µM | > 10 µM | > 10 µM | > 10 µM | 0.111 µM | > 10 µM |  |  |  | 
5 | Cn1c(=O)c2c(ncn2CC2OCCO2)n(C)c1=O [DOXOFYLLINE] | > 30 µM | > 30 µM | > 30 µM | > 30 µM | > 30 µM | > 30 µM |  | > 30 µM | > 30 µM |  |  | > 30 µM
6 | Cc1ccc(S(=O)(=O)NC(=O)NN2CC3CCCC3C2)cc1 (stereo unspecified) [GLICLAZIDE] | > 10 µM | > 10 µM | > 10 µM | > 10 µM | > 10 µM | > 10 µM |  | > 10 µM | > 30 µM |  |  | 
7 | CC(C)Cn1cnc2c(N)nc3ccccc3c21 [IMIQUIMOD] | > 10 µM | > 10 µM | > 10 µM | > 10 µM | > 10 µM | > 30 µM | > 10 µM | > 10 µM | > 30 µM |  |  | 
8 | Nc1nc(N)nc(-c2cc(Cl)ccc2Cl)n1 [IRSOGLADINE] | > 30 µM | > 30 µM | > 30 µM |  | > 30 µM | > 30 µM | > 30 µM |  | > 30 µM |  |  | > 30 µM
9 | CNC(C)CCC=C(C)C (stereo unspecified) [ISOMETHEPTENE] |  | > 30 µM | > 30 µM |  | > 30 µM | > 30 µM |  |  |  |  |  | > 30 µM
10 | C[C@](N)(Cc1ccc(O)c(O)c1)C(=O)O [METHYLDOPA] | > 10 µM | > 10 µM | > 10 µM | > 10 µM | > 10 µM | > 10 µM |  | > 10 µM | > 30 µM |  |  | 
11 | O=C(NCCN1CCOCC1)c1ccc(Cl)cc1 [MOCLOBEMIDE] | > 10 µM | > 10 µM | > 10 µM | > 10 µM | > 10 µM | > 10 µM |  | > 10 µM | > 30 µM |  |  | 
12 | CCCc1nc(C(C)(C)O)c(C(=O)OCc2oc(=O)oc2C)n1Cc1ccc(-c2ccccc2-c2nnn[nH]2)cc1 [OLMESARTAN MEDOXOMIL] | > 10 µM | > 10 µM | 0.0009 µM | > 10 µM | > 10 µM | > 50 µM |  | > 10 µM | 11 µM | > 10 µM | > 10 µM | > 50 µM
13 | N#Cc1ccc([C@H]2CCc3cncn32)c(F)c1 [OSILODROSTAT] |  | > 10 µM | > 10 µM | > 10 µM | > 10 µM | > 10 µM |  | > 10 µM | > 10 µM | > 10 µM | > 10 µM | > 10 µM
14 | CCN(CC)C(=O)N[C@H]1C[C@@H]2c3cccc4[nH]cc(c34)C[C@H]2N(C)C1 [TERGURIDE] | > 30 µM |  | > 30 µM |  | > 30 µM | > 30 µM |  | > 30 µM | > 30 µM |  | > 30 µM | > 30 µM
15 | C[C@]12CC[C@H]3[C@@H](CCC4=CC(=O)CC[C@@]43C)[C@@H]1CC[C@@H]2O [TESTOSTERONE] | > 10 µM | > 10 µM | > 10 µM | > 10 µM | > 10 µM | > 10 µM | 0.246 µM | > 10 µM | > 30 µM |  |  | 
16 | CN1CCN(CC/C=C2/c3ccccc3Sc3ccc(S(=O)(=O)N(C)C)cc32)CC1 [THIOTHIXENE] | > 10 µM | > 10 µM | > 30 µM | > 10 µM |  | > 30 µM |  | 11.6 µM | 11 µM |  | > 10 µM | > 30 µM
17 | CN1C(=O)OC(C)(C)C1=O [TRIMETHADIONE] | > 10 µM | > 10 µM | > 10 µM | > 10 µM | > 10 µM | > 10 µM | > 10 µM | > 10 µM | > 30 µM |  |  | 
18 | CC(=O)O[C@H]1C[C@@H]2CC[C@@H]3[C@H](CC[C@@]4(C)[C@H]3C[C@H]([N+]3(C)CCCCC3)[C@@H]4OC(C)=O)[C@@]2(C)C[C@@H]1N1CCCCC1 [VECURONIUM] | > 30 µM | > 30 µM | > 30 µM | > 30 µM | > 30 µM | > 30 µM |  | > 30 µM | > 30 µM |  |  | > 30 µM
